Source: US20250215029A1 (Recludix Pharma, Inc., priority 2022, published 2025)

molecular target: T1, pY641-STAT6 in PBMC (Homo sapiens, UniProt P42226); experiment: MSD-pSTAT-PBMC Assay (pSTAT6, IL-4 stimulated); assay type: cell-based; settings: PBMC, compound 3 hrs, then 1 ng/mL IL-4 for 10 min; Table 115; read-out: STAT6
T1 construct: Cryopreserved Peripheral Blood Mononuclear Cells (PBMC) are from AllCells; host or cells: cryopreserved PBMC
T1 sequence (P42226 1-847): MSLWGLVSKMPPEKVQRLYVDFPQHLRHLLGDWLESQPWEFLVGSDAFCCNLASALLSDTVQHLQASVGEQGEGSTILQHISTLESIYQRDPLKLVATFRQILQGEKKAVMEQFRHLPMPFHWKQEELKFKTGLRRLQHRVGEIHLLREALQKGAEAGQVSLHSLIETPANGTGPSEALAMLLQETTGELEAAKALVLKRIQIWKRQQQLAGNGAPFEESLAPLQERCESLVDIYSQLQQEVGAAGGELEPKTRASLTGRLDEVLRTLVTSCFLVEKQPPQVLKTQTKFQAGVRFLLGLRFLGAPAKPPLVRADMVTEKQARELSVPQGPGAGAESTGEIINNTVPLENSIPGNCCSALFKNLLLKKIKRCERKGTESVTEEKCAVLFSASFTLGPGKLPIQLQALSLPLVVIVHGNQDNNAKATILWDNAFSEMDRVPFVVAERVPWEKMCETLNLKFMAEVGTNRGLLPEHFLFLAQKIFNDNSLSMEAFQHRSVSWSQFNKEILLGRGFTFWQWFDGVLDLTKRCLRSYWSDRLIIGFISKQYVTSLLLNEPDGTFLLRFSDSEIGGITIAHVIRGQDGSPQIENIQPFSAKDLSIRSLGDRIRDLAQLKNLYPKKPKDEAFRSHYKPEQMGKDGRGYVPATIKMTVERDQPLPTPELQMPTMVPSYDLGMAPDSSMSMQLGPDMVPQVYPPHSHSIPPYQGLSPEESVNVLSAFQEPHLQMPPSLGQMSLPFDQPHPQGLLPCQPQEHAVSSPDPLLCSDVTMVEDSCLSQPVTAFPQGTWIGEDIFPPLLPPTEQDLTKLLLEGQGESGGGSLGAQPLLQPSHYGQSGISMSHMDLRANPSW
Description: Cryopreserved Peripheral Blood Mononuclear Cells (PBMC) are from AllCells. Recombinant Human IL-4 and IL-6 are from Peprotech. Mouse monoclonal anti-STAT3 antibody, rabbit monoclonal anti-pY705-STAT3 antibody, rabbit monoclonal Anti-pY641-STAT6 antibody, and lysis buffer are from Cell Signaling Technology (CST). Mouse monoclonal anti-STAT6 antibody is from BioLegend. Assay plates, blocker, and anti-rabbit secondary antibody are from Meso Scale Discovery (MSD).
Cyropreserved PBMCs were thawed out and allowed to recover overnight in IMDM+10% heat-inactivated FBS prior to plating 50,000 (STAT3) or 25,000 (STAT6) cells per well in 96-well U-bottom tissue culture plates. Cells were treated with compound for 3 hrs, then stimulated with 10 ng/mL IL-6 (STAT3) or 1 ng/mL IL-4 (STAT6) for 10 min. Cells were then spun down and washed with ice-cold PBS prior to lysing the cell pellet with 1× lysis buffer (CST) with 1× HALT protease and phosphatase inhibitor cocktail (Thermo). Lysates were transferred to and incubated overnight at 4° C. with shaking in QuickPlex 96-well high bind assay plates (MSD) pre-coated overnight with 30 μL per well of 0.6 μg/mL mouse monoclonal anti-STAT3 antibody (STAT3) or 2 μg/mL mouse monoclonal anti-STAT6 antibody (STAT6) in 1× PBS, and pre-blocked for 1 hour with 3% Blocker-A (MSD). Captured protein in the assay plates were then washed and probed with 25 μL per well of […] rabbit monoclonal anti-pY705-STAT3 antibody (STAT3) or 0.18 μg/ml rabbit monoclonal Anti-pY641-STAT6 antibody (STAT6) in 1% Blocker-A for 1 hour at room temperature with shaking, then washed and probed with 25 ul per well of 1 ug/ml Sulfo-TAG Labeled Goat Anti-Rabbit Antibody (MSD) in 1% Blocker-A for 1 hour at room temperature with shaking. Assay plates were then washed and 150 μL of 1× Read Buffer-T (MSD) was added to each well prior to reading on an SQ120 MSD Plate Reader. Assay signal from each sample was subtracted by the signal from unstimulated control wells and normalized to DMSO control wells. IC50 values were calculated using Graph Pad Prism Dose-Response Nonlinear Regression with variable slope. For both pSTAT3 and pSTAT6 A=≤100 nM; B 100-1000 nM; C=>1000-3000 nM; D=>3 μM; and NT=Not Tested.

SMILES	IC50
CC(C)OC(=O)OCOP(=O)(OCCSC(=O)C(C)(C)C)C(F)(F)c1ccc2sc(C(=O)N[C@H]3CCCC[C@H]4CC[C@@H](C(=O)N5C[C@@H](C#N)[C@H](c6ccccc6)C5)N4C3=O)cc2c1 (single isomer, unassigned) [Compound 1012]	< 100 nM
COCCOCC(=O)SCCOP(=O)(OCCSC(=O)COCCOC)C(F)(F)c1ccc2ccc(C(=O)N[C@H]3CCCC[C@H]4CC[C@@H](C(=O)N5C[C@@H](C#N)[C@H](c6cc[nH]c(=O)c6)C5)N4C3=O)cc2c1 (single isomer, unassigned) [Compound 1013]	100 to 1000 nM
CC(C)(C)C(=O)SCCOP(=O)(OCCSC(=O)C(C)(C)C)C(F)(F)c1ccc2sc(C(=O)N[C@H]3CCC[C@H]4CC[C@@H](C(=O)N5C[C@@H](c6ccccc6)[C@H](C#N)C56CC6)N4C3=O)cc2c1 (single isomer, unassigned) [Compound 1080]	< 100 nM
CC(C)(C)C(=O)SCCOP(=O)(OCCSC(=O)C(C)(C)C)C(F)(F)c1ccc2sc(C(=O)N[C@H]3CCC[C@H]4CC[C@@H](C(=O)N5C[C@H](c6ccccc6)[C@@H](C#N)C56CC6)N4C3=O)cc2c1 (single isomer, unassigned) [Compound 1081]	< 100 nM
COCCOC(=O)[C@H](C)NP(=O)(OCC(F)(F)F)[C@@H](F)c1ccc2sc(C(=O)N[C@H]3CCCC[C@H]4CC[C@@H](C(=O)N5CC(c6ccccc6)C(C#N)C56CC6)N4C3=O)cc2c1 (stereo in doubt) [Compound 377, 2-methoxyethyl (((R)-(2-(((3S,6S,10aS)-3-((6S,7R)-7-cyano-6-phenyl-4-azaspiro[2.4]heptane-4-carbonyl)-5-oxodecahydropyrrolo [1,2-a]azocin-6-yl)carbamoyl)benzo [b]thiophen-5-yl)fluoromethyl)(2,2,2-trifluoroethoxy)phosphoryl)-L-alaninate]	< 100 nM

same assay, conditions: STAT6, PBMC, compound 3 hrs, then 1 ng/mL IL-4 for 10 min; Table 115

SMILES	IC50
CCCOC(=O)[C@H](C)NP(=O)(Oc1ccccc1)[C@@H](F)c1ccc2sc(C(=O)N[C@H]3CCC[C@H]4CC[C@@H](C(=O)N5C[C@H](c6cncc(Cl)c6)[C@@H](C#N)C56CC6)N4C3=O)cc2c1 (single isomer, unassigned) [Compound 367]	100 to 1000 nM
CCCOC(=O)[C@H](C)NP(=O)(Oc1ccccc1)[C@@H](F)c1ccc2sc(C(=O)N[C@H]3CCC[C@H]4CC[C@@H](C(=O)N5C[C@H](c6cncc(Cl)c6)[C@@H](C#N)C56CC6)N4C3=O)cc2c1 (single isomer, unassigned) [Compound 368]	> 3000 nM
CCCOC(=O)[C@H](C)NP(=O)(Oc1ccccc1)[C@@H](F)c1ccc2sc(C(=O)N[C@H]3CCC[C@H]4CC[C@@H](C(=O)N5C[C@H](c6cncc(OC)c6)[C@@H](C#N)C56CC6)N4C3=O)cc2c1 (single isomer, unassigned) [Compound 369]	1000 to 3000 nM
CCCOC(=O)[C@H](C)NP(=O)(Oc1ccccc1)[C@@H](F)c1ccc2sc(C(=O)N[C@H]3CCCC[C@H]4CC[C@@H](C(=O)N5C[C@H](c6cncc(Cl)c6)[C@@H](C#N)C56CC6)N4C3=O)cc2c1 (single isomer, unassigned) [Compound 370]	< 100 nM
CCCOC(=O)[C@H](C)NP(=O)(Oc1ccccc1)[C@@H](F)c1ccc2sc(C(=O)N[C@H]3CCCC[C@H]4CC[C@@H](C(=O)N5C[C@H](c6cncc(Cl)c6)[C@@H](C#N)C56CC6)N4C3=O)cc2c1 (single isomer, unassigned) [Compound 371]	1000 to 3000 nM
CCCOC(=O)[C@H](C)NP(=O)(Oc1ccccc1)[C@@H](F)c1ccc2sc(C(=O)N[C@H]3CCCC[C@H]4CC[C@@H](C(=O)N5C[C@H](c6cncc(OC)c6)[C@@H](C#N)C56CC6)N4C3=O)cc2c1 (single isomer, unassigned) [Compound 372]	> 3000 nM
CCCOC(=O)[C@H](C)NP(=O)(Oc1ccccc1)C(C)c1ccc2ccc(C(=O)N[C@H]3CCCC[C@H]4CC[C@@H](C(=O)N5C[C@@H](c6ccccc6)CC56CC6)N4C3=O)cc2c1 (single isomer, unassigned) [Compound 425]	> 3000 nM
CCCOC(=O)[C@H](C)N[P@@](=O)(Oc1ccccc1)[C@@H](F)c1ccc2sc(C(=O)N[C@H]3CCCC[C@H]4CC[C@@H](C(=O)N5C[C@@H](c6cccnc6)CC56CC6)N4C3=O)cc2c1 (single isomer, unassigned) [Compound 461]	< 100 nM
CCCOC(=O)[C@H](C)NP(=O)(Oc1ccccc1)[C@@H](F)c1ccc2sc(C(=O)N[C@H]3CCC[C@H]4CC[C@@H](C(=O)N5C[C@H](c6ccc(C)cc6)[C@@H](C#N)C56CC6)N4C3=O)cc2c1 (single isomer, unassigned) [Compound 478]	< 100 nM
CCCOC(=O)[C@H](C)NP(=O)(Oc1ccccc1)[C@@H](F)c1ccc2sc(C(=O)N[C@H]3CCCC[C@H]4CC[C@@H](C(=O)N5C[C@@H](c6cccc(C(F)F)c6)[C@H](C#N)C56CC6)N4C3=O)cc2c1 (single isomer, unassigned) [Compound 482]	< 100 nM
CCCOC(=O)[C@H](C)NP(=O)(Oc1ccccc1)[C@H](F)c1ccc2sc(C(=O)N[C@H]3CCCC[C@H]4CC[C@@H](C(=O)N5CC(c6cccnc6)CC56CC6)N4C3=O)cc2c1 (stereo in doubt) [Compound 458, propyl (((S)-fluoro(2-(((3S,6S,10aS)-5-oxo-3-((R)-6-(pyridin-3-yl)-4-azaspiro[2.4]heptane-4-carbonyl)decahydropyrrolo[1,2-a]azocin-6-yl)carbamoyl)benzo [b]thiophen-5-yl)methyl)(phenoxy)phosphoryl)-L-alaninate]	< 100 nM
CCCOC(=O)[C@H](C)NP(=O)(Oc1ccccc1)C(F)c1ccc2sc(C(=O)N[C@H]3CCCC[C@H]4CC[C@@H](C(=O)N5C[C@H](c6cccnc6)CC56CC6)N4C3=O)cc2c1 (stereo in doubt) [Compound 459, propyl (((S)-fluoro(2-(((3S,6S,10aS)-5-oxo-3-((S)-6-(pyridin-3-yl)-4-azaspiro[2.4]heptane-4-carbonyl)decahydropyrrolo[1,2-a]azocin-6-yl)carbamoyl)benzo [b]thiophen-5-yl)methyl)(phenoxy)phosphoryl)-L-alaninate]	< 100 nM
CCCOC(=O)[C@H](C)N[P@@](=O)(Oc1ccccc1)[C@@H](F)c1ccc2sc(C(=O)N[C@H]3CCCC[C@H]4CC[C@@H](C(=O)N5C[C@@H](c6cccnc6)CC56CC6)N4C3=O)cc2c1 (stereo in doubt) [Compound 460, propyl (((R)-fluoro(2-(((3S,6S,10aS)-5-oxo-3-((S)-6-(pyridin-3-yl)-4-azaspiro[2.4]heptane-4-carbonyl)decahydropyrrolo[1,2-a]azocin-6-yl)carbamoyl)benzo [b]thiophen-5-yl)methyl)(phenoxy)phosphoryl)-L-alaninate]	< 100 nM

same assay, conditions: read-out: STAT6; PBMC, compound 3 hrs, then 1 ng/mL IL-4 for 10 min; Table 115

SMILES	IC50
CCCOC(=O)[C@H](C)NP(=O)(Oc1ccccc1)[C@@H](F)c1ccc2sc(C(=O)N[C@H]3CCCC[C@H]4CC[C@@H](C(=O)N5C[C@@H](c6cccc(C(F)F)c6)[C@H](C#N)C56CC6)N4C3=O)cc2c1 (single isomer, unassigned) [Compound 483]	< 100 nM
